Source: patent US20260184663A1, “INDENE COMPOUNDS, PHARMACEUTICAL COMPOSITIONS THEREOF, AND THEIR THERAPEUTIC APPLICATIONS” (NucMito Pharmaceuticals co. Ltd., priority 2022, published 2026)

Key:
Assay type in all cases: cell-based
[1] = system: A431 (epidermoid carcinoma); assay: Antiproliferative activity (CCK-8 cell viability), A431; conditions: Homo sapiens, 72 h, read-out: Antiproliferative activity in cancerous cells, A431 (inhibition of cell growth); for inhibition at 3.3 µM: A-431, Compound concentration: 3.3 μM; for inhibition at 10 µM: A-431, Compound concentration: 10 μM; for inhibition at 30 µM: A-431, Compound concentration: 30 μM
Procedure, shortened: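 A431 epidermoid carcinoma cells grown in DMEM with 10% FBS were plated at 2,000-5,000 cells/well in 96-well plates. After attachment they were exposed to compound at 3.3 μM, 10 μM, or 30 μM for 72 h at 37° C. Viability was then assessed by CCK-8 against DMSO vehicle-treated wells.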

HeLa (cervical cancer) = assay: Antiproliferative activity (CCK-8 cell viability), HeLa; conditions: Homo sapiens, 72 h, read-out: Antiproliferative activity in cancerous cells, HELA (inhibition of cell growth); for inhibition at 3.3 µM: Compound concentration: 3.3 μM; for inhibition at 10 µM: Compound concentration: 10 μM; for inhibition at 30 µM: Compound concentration: 30 μM
Procedure, shortened: (§1)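 Cells grown in DMEM (HepG2, SW480), MEM (HeLa) or F-12K (A549), each with 10% FBS, then exposed to compound at 3.3, 10 or 30 μM for 72 h at 37 °C. CCK-8 absorbance at 450 nm; viability expressed as percent of DMSO-treated cells, graded as growth inhibition bands.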

HepG2 (liver cancer) = assay: Antiproliferative activity (CCK-8 cell viability), HepG2; conditions: Homo sapiens, 72 h, read-out: Antiproliferative activity in cancerous cells, HepG2 (inhibition of cell growth); for inhibition at 3.3 µM: Compound concentration: 3.3 μM; for inhibition at 10 µM: Compound concentration: 10 μM; for inhibition at 30 µM: Compound concentration: 30 μM
Procedure, shortened: as §1

[2] = system: A549 (lung adenocarcinoma); assay: Antiproliferative activity (CCK-8 cell viability), A549; conditions: Homo sapiens, 72 h, read-out: Antiproliferative activity in cancerous cells, A549 (inhibition of cell growth); for inhibition at 3.3 µM: Compound concentration: 3.3 μM; for inhibition at 10 µM: Compound concentration: 10 μM; for inhibition at 30 µM: Compound concentration: 30 μM
Procedure, shortened: as §1

SW480 (colon cancer) = assay: Antiproliferative activity (CCK-8 cell viability), SW480; conditions: Homo sapiens, 72 h, read-out: Antiproliferative activity in cancerous cells, SW480 (inhibition of cell growth); for inhibition at 3.3 µM: Compound concentration: 3.3 μM; for inhibition at 10 µM: Compound concentration: 10 μM; for inhibition at 30 µM: Compound concentration: 30 μM
Procedure, shortened: as §1

[3] = system: B16F10 (malignant melanoma); assay: Antiproliferative activity (CCK-8 cell viability), B16F10; conditions: Mus musculus, 72 h, read-out: Antiproliferative activity in cancerous cells, B16F10 (inhibition of cell growth); for inhibition at 3.3 µM: B16-F10, Compound concentration: 3.3 μM; for inhibition at 10 µM: B16-F10, Compound concentration: 10 μM; for inhibition at 30 µM: B16-F10, Compound concentration: 30 μM
Procedure, shortened: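 B16F10 melanoma cells grown in DMEM with 10% FBS were plated in 96-well plates at 2,000-5,000 cells/well. After attachment they were exposed to compound in medium for 72 h at 37° C. CCK-8 solution (10 μL) was then added, and after 4 h at 37° C absorbance was read at 450 nm.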

[4] = system: alpha-smooth muscle actin (α-SMA); assay: Inhibition of TGF-β induced expression of alpha-smooth muscle actin (α-SMA) in CFSC cells (western blot); conditions: compound at 10 μM, TGF-β (10 ng/mL), 24 hours, band intensity vs TGF-β only
Procedure, shortened: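 CFSC hepatic stellate cells in serum-free DMEM treated 24 h at 37 °C with compound at 10 μM plus TGF-β (10 ng/mL). α-SMA measured by Western blot with β-actin, ECL detection, densitometry. Percent inhibition is decrease in band intensity versus TGF-β-only cells.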

[5] = system: MDA-MB-231 (breast cancer); assay: Antiproliferative activity (CCK-8 cell viability), MDA-MB-231; conditions: Homo sapiens, 72 h, read-out: Antiproliferative activity in cancerous cells, MDA-MB-231 (inhibition of cell growth); for inhibition at 3.3 µM: Compound concentration: 3.3 μM; for inhibition at 10 µM: Compound concentration: 10 μM; for inhibition at 30 µM: Compound concentration: 30 μM
Procedure, shortened: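 MDA-MB-231 breast cancer cells, grown in DMEM with 10% FBS, were plated in 96-well plates at 2,000-5,000 cells/well. Once attached, they were exposed to compound and incubated at 37° C. for 72 h. Viability was then measured with CCK-8 (10 μL per well, 4 h at 37° C.) by absorbance at 450 nm, relative to DMSO vehicle wells.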

SMILES	inhibition at 3.3 µM [1] [%]	inhibition at 10 µM [1] [%]	inhibition at 30 µM [1] [%]	inhibition at 3.3 µM (HeLa (cervical cancer)) [%]	inhibition at 10 µM (HeLa (cervical cancer)) [%]	inhibition at 30 µM (HeLa (cervical cancer)) [%]	inhibition at 3.3 µM (HepG2 (liver cancer)) [%]	inhibition at 10 µM (HepG2 (liver cancer)) [%]	inhibition at 30 µM (HepG2 (liver cancer)) [%]	inhibition at 3.3 µM [2] [%]	inhibition at 10 µM [2] [%]	inhibition at 30 µM [2] [%]	inhibition at 3.3 µM (SW480 (colon cancer)) [%]	inhibition at 10 µM (SW480 (colon cancer)) [%]	inhibition at 30 µM (SW480 (colon cancer)) [%]	inhibition at 3.3 µM [3] [%]	inhibition at 10 µM [3] [%]	inhibition at 30 µM [3] [%]	inhibition at 10 µM [4] [%]	inhibition at 3.3 µM [5] [%]	other results
CC1=C(CC(=O)O)c2c(F)ccc(F)c2/C1=C/c1cccc(C(F)(F)F)c1 [E13, (E)-2-(4,7-Difluoro-2-methyl-1-(3-(trifluoromethyl)benzylidene)-1H-inden-3-yl)-acetic acid]	< 30	30 to 50	≥ 50	30 to 50	30 to 50	≥ 50	< 30	< 30	< 30	< 30	≥ 50	≥ 50	< 30	< 30	< 30	< 30	≥ 50	≥ 50	< 30	< 30	inhibition at 10 µM [5]: < 30%; inhibition at 30 µM [5]: < 30%
C/C(=C1/C=C(CC(=O)O)c2ccccc21)c1ccc(F)cc1 [E14, (E)-2-(1-(1-(4-Fluorophenyl)ethylidene)-1H-inden-3-yl)acetic acid]	< 30	< 30	< 30	30 to 50	30 to 50	≥ 50	< 30	< 30	< 30	< 30	< 30	30 to 50	< 30	< 30	30 to 50	< 30	< 30	30 to 50	< 30	30 to 50	inhibition at 10 µM [5]: 30 to 50%; inhibition at 30 µM [5]: 30 to 50%
CC1=C(CC(=O)O)c2c(F)ccc(F)c2/C1=C/c1ccc(C(F)(F)F)cc1 [E15, (E)-2-(4,7-Difluoro-2-methyl-1-(4-(trifluoromethyl)benzylidene)-1H-inden-3-yl)-acetic acid]	< 30	< 30	≥ 50	< 30	30 to 50	≥ 50	< 30	< 30	< 30	< 30	< 30	≥ 50	< 30	< 30	< 30	< 30	< 30	≥ 50	< 30	≥ 50	inhibition at 10 µM [5]: ≥ 50%; inhibition at 30 µM [5]: ≥ 50%
CC1=C(CC(=O)O)c2cc(F)ccc2/C1=C/c1cccc(Oc2cccc(C(F)(F)F)c2)c1 [E16, (E)-2-(5-Fluoro-2-methyl-1-(3-(3-(trifluoromethyl)phenoxy)benzylidene)-1H-inden-3-yl)acetic acid]	< 30	< 30	≥ 50	≥ 50	≥ 50	≥ 50	< 30	30 to 50	≥ 50	30 to 50	30 to 50	≥ 50	< 30	< 30	≥ 50	< 30	< 30	≥ 50	> 80	30 to 50	inhibition at 10 µM [5]: 30 to 50%; inhibition at 30 µM [5]: ≥ 50%
